{"source": "patent US20180169172A1", "about": "“COMPOUND AND METHOD FOR REDUCING APPETITE, FATIGUE AND PAIN” (priority 2018, published 2018)", "origin": "cited, not measured here", "key": {"gastrointestinal transit": {"system": "gastrointestinal transit", "conditions": "subcutaneous, mice"}, "mice": {"system": "mice", "conditions": "even upon oral administration"}, "[1]": {"target": "μ-subtype opioid receptor (MOR) (Homo sapiens, UniProt P35372)", "sequence (P35372 whole entry)": "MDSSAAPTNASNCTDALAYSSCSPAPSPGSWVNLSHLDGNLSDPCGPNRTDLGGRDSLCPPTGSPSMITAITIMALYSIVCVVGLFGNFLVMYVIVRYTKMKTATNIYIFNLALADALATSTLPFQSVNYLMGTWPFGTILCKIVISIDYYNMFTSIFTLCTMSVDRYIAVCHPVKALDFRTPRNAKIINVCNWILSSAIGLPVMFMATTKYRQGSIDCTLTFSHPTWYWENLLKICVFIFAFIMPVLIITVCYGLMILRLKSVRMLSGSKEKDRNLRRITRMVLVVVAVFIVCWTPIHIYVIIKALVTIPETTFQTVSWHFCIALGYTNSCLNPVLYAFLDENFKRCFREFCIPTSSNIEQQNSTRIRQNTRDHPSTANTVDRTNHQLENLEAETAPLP"}, "pain": {"system": "pain", "conditions": "by mouth, immediate-release formulation"}, "skeletal muscle": {"system": "skeletal muscle", "conditions": "rat, in vivo"}, "animal": {"system": "animal", "conditions": "animal studies, versus codeine"}, "[2]": {"assay": "not given", "remark": "listed apart in the source"}, "[3]": {"assay": "not given", "remark": "listed apart in the source"}, "rodents": {"system": "rodents", "conditions": "dose levels of 800-900 mg/kg in rodents"}, "[4]": {"conditions": "microplate reader determination"}, "rats": {"system": "rats", "conditions": "200 mg/kg in rats; mitragynine given orally"}, "[5]": {"system": "compound nerve action potential", "conditions": "2 mg/mL"}, "[6]": {"assay": "not given", "remark": "listed apart in the source"}, "Kratom users": {"system": "Kratom users", "conditions": "even after chronic and high dosage consumption"}, "[7]": {"conditions": "nine subjects, oral Kratom tea, loading dose"}}, "note": "Like-named read-outs stand apart in the source and are kept apart here.", "data": [{"smiles": "CC[C@@H]1CN2CC[C@@]3(O)C(=Nc4cccc(OC)c43)[C@@H]2C[C@@H]1/C(=C\\OC)C(=O)OC", "note": "[7-hydroxymitragynine, (αE,2S,3S,7aS,12bS)-3-ethyl-1,2,3,4,6,7,7a,12b-octahydro-7a-hydroxy-8-methoxy-α-(methoxymethylene)-indolo [2,3-a]quinolizine-2-acetic acid methyl ester]", "values": [{"measurement": "gastrointestinal transit", "setting": "gastrointestinal transit", "value": "caused an inhibition"}, {"measurement": "analgesic potency relative to morphine", "setting": "mice", "value": "several times more potent analgesic than morphine"}, {"measurement": "agonism at μ-subtype opioid receptor", "setting": "[1]", "value": "selective and full agonists"}]}, {"smiles": "COc1cccc(C2(O)CCCCC2CN(C)C)c1", "note": "(stereo not shown) [Tramadol, tramadol]", "values": [{"measurement": "onset of pain relief", "setting": "pain", "value": "within an hour"}]}, {"smiles": "CC[C@@H]1CN2CCc3c([nH]c4cccc(OC)c34)[C@@H]2C[C@@H]1/C(=C\\OC)C(=O)OC", "note": "[mitragynine, (αE,2S,3S,12bS)-3-ethyl-1,2,3,4,6,7,12,12b-octahydro-8-methoxy-α-(methoxymethylene)-indolo[2,3-a]quinolizine-2-acetic acid methyl ester]", "values": [{"measurement": "skeletal muscle relaxation", "setting": "skeletal muscle", "value": "produced skeletal muscle relaxation"}, {"measurement": "2-deoxy-D-glucose-stimulated gastric acid secretion", "setting": "gastric acid secretion; administration into fourth ventricle of anesthetized rats, reversed by naloxone", "value": "inhibition"}, {"measurement": "basal gastric acid secretion", "setting": "gastric acid secretion; administration into the lateral ventricle", "value": "did not alter"}, {"measurement": "total drug release in dissolution", "setting": "simulated gastric fluid (SGF)", "value": "higher"}, {"measurement": "total drug release in dissolution", "setting": "simulated intestinal fluid (SIF)", "value": "prolonged and incomplete"}, {"measurement": "agonism at μ-subtype opioid receptor", "setting": "[1]", "value": "selective and full agonists"}, {"measurement": "antinociceptive effect", "setting": "animal", "value": "comparable to those of codeine"}, {"measurement": "cough-suppressant effect", "setting": "animal", "value": "comparable to those of codeine"}, {"measurement": "urine excretion of unchanged form", "setting": "[2]; 24-hour period", "value": 0.14, "unit": "%"}, {"measurement": "apparent volume of distribution", "setting": "[2]; [7]", "value": "38.04 ± 24.32", "unit": "L/kg"}, {"measurement": "terminal half-life", "setting": "[2]; [7]", "value": "23.24 ± 16.07", "unit": "h"}, {"measurement": "time to reach the maximum plasma concentration", "setting": "[2]; [7]", "value": "0.83 ± 0.35", "unit": "h"}, {"measurement": "logP", "setting": "[3]", "value": 1.73}, {"measurement": "toxicity", "setting": "rodents", "value": "no toxicity"}, {"measurement": "pKa", "setting": "[4]", "value": "8.08±0.04"}, {"measurement": "lethality", "setting": "rats", "value": "lethal effects"}, {"measurement": "nerve conduction, amplitude and duration of compound nerve action potential", "setting": "[5]", "value": "blocked"}, {"measurement": "stability in acid", "setting": "[6]; acidic environments", "value": "acid labile"}, {"measurement": "water solubility", "setting": "[6]; water", "value": "< 100", "unit": "µg/mL"}, {"measurement": "solubility", "setting": "[6]; water and basic media", "value": "poor solubility in water and basic media"}, {"measurement": "mortalities following consumption alone", "setting": "Kratom users", "value": "no reports of mortalities"}]}]}
